From patent US6965033B2, “Bisamidate phosphonate prodrugs” (Metabasis Therapeutics, Inc., priority 1999, dated 2005)

Tests used:
[1] = system: Human Liver Phosphoramidase; test: Structure Activity Relationship of Human Liver Phosphoramidase (human liver homogenate); assay type: in vitro ADME; conditions: pH 7.4
Method: Human liver, purchased from the Anatomic Gift Foundation (Laurel, Md.), was homogenized in Krebs-bicarbonate buffer and clarified by a slow-speed centrifugation. Prodrug metabolism was evaluated in reaction mixtures containing human liver homogenate (4 mgs protein), 50 mM Tris-HCl, pH 7.4, 10 mM MgCl2, and 10 mM dithiothreitol. At various time intervals over the course of 2 hours, aliquots were removed from the reaction mixtures and deproteinated by addition of methanol to 60%. Following clarification by centrifugation, metabolites were analyzed by reverse phase HPLC with use of a Beckman Ultrasphere ODS column (4.6×150 mm) equipped with an Alltech All-Guard column. The column was equilibrated with 20 mM potassium phosphate, pH 6.2 and eluted with a linear gradient of 0-60% acetonitrile over 20 minutes at a flow rate of 1.5 mL/min and at a temperature of 40° C. UV absorbance was monitored at 300 nm. Most of the prodrugs evaluated were metabolized via a non-rate limiting, esterase-catalyzed step to their monophosphoramidate form within 5 minutes of incubation. The rate of phosphonic acid appearance was therefore essentially a reflection of the rate of the final […] cleavage step. Results for representative prodrugs for which the esterase-catalyzed step was non-rate limiting are shown below: […]

[2] = Metabolism of 50.6 in human plasma; assay type: in vitro ADME; conditions: 100 μM
Method: (§1) The metabolism of 50.6 was evaluated in rat, monkey, and human plasma by reverse phase HPLC with use of a Beckman Ultrasphere ODS column (4.6×150 mm) equipped with an Alltech All-Guard column. The column was equilibrated with 20 mM potassium phosphate, pH 6.2 and eluted with a linear gradient of 0-60% acetonitrile over 20 minutes at a flow rate of 1.5 mL/min and at a temperature of 40° C. UV absorbance was monitored at 300 nm. […] The metabolite formed in rat plasma was collected and subjected to mass spectrum analysis at Mass Consortium Corporation (San Diego, Calif.). […] This molecular weight is consistent with that of a monophosphoramidate intermediate. This intermediate is likely formed via a reaction mechanism in which the prodrug first undergoes full de-esterification followed by intramolecular, hydrolytic cleavage of one of the amino acyl substituents. Formation of the postulated monophosphoramidate intermediate was confirmed following the synthesis of a synthetic standard, Compound C. The standard had the identical HPLC and UV profile as the metabolite formed in plasma samples.

[3] = Metabolism of 50.6 in rat plasma; assay type: in vitro ADME; conditions: 100 μM
Method: as §1

[4] = system: ZDF rat; test: Chronic Oral Efficacy in the ZDF Rat; assay type: in vivo
Method: Methods: ZDF rats (10 weeks of age) were maintained either on powdered Purina 5008 rat chow (n=10) or the same powdered chow supplemented with 0.4% 50.6 (n=8). Blood glucose measurements were made as described in Example E at baseline and at weekly intervals thereafter for a total of 3 weeks. Statistical analysis was performed using the Student's t test. Means±standard error of the means are shown.

[5] = system: Zucker Diabetic Fatty (ZDF rat); test: Acute Oral Efficacy in the ZDF Rat; assay type: in vivo
Method: Methods: ZDF rats were purchased from Genetics Inc (Indianapolis, Ind.) at 8 weeks of age. Animals were maintained under standard vivarium conditions and provided with Purina 5008 chow and water ad libitum. At 10-12 weeks of age, rats with blood glucose levels>500 mg/dl were selected and dosed orally either with vehicle (PEG 400), or prodrug (60 mg/kg). Blood glucose levels were monitored at regular intervals for 6 hours following dosing. Blood samples were taken from tail vein nicks and analyzed by means of a HemoCue glucose analyzer (Hemocue, Mission Viejo, Calif.). Statistical analysis was performed using the Student's t test. Means±standard error of the means are shown.

[6] = system: human hepatocytes; test: Metabolism of 50.6 in Human Hepatocytes; assay type: in vitro ADME; conditions: 10 μM
Method: Cryopreserved human hepatocytes were obtained from In Vitro Technologies and thawed according to the vendor's recommendations. Cells were incubated at 37° C. in a Krebs-bicarbonate based buffer containing 50.6 at 10 μM. At various time points over the course of 4 hours, aliquots of cells were removed and extracted by addition of methanol to 60%. Cell extracts were clarified by centrifugation and analyzed by reverse phase HPLC with use of a Beckman Ultrasphere ODS column (4.6×150 mm) equipped with an Alltech All-Guard column. […]. Disappearance of 50.6 was rapid and essentially complete within 60 minutes of incubation. […] The initial rate of 3.1 formation was 24 pmol/million cells/minute. […]

[7] = Metabolism of 50.6 in monkey plasma; assay type: in vitro ADME; conditions: 100 μM
Method: as §1

For CCOC(=O)[C@H](C)NP(=O)(N[C@@H](C)C(=O)OCC)c1ccc(-c2nc(N)sc2CC(C)C)o1 [Compound 50.6, 2-Amino-5-isobutyl-4-{2-[5-(N,N′-bis((S)-1-ethoxycarbonyl)ethyl)phosphonamido]furanyl}thiazole], the “Phosphoramidase Activity (Rate of 3.1 or 3.58 production, nmoles/mn/mg liver protein)” value [1] was 0.022 nmoles/mn/mg liver protein, the “metabolites formed in plasma” value [2] was “single metabolite” and the “metabolites formed in plasma” value [3] was “single metabolite”. The “Blood glucose, t21 days” value ([4]; 21 days on chow supplemented with 0.4% drug) was 436 ± 41 mg/dL, the “Blood Glucose, Tbaseline” value ([4]; baseline, chow with 0.4% drug group) was 674 ± 20 mg/dL and the “Blood Glucose, T6h” value ([5]; 6 h after 60 mg/kg oral) was 406 ± 12 mg/dL. For the same molecule, the “Blood Glucose, % Change” value ([5]; baseline to 6 h, 60 mg/kg oral) was −25%, the “Blood Glucose, Tbaseline” value ([5]; baseline, 60 mg/kg oral group) was 544 ± 25 mg/dL and the “time to essentially complete disappearance” value ([6]; cryopreserved human hepatocytes, 37° C.) was at most 60 min. The “initial rate of 3.1 formation” value ([6]; human hepatocytes) was 24 pmol/million cells/minute, the metabolites detected ([6]; human hepatocytes) was “Compound C and 3.1” and the “metabolites formed in plasma” value [7] was “single metabolite”.
